Patent US6472526B1, “Imidazole derivatives having an inhibitory activity for farnesyl transferase and process for preparation thereof” (LG Chemical Ltd., priority 1997, dated 2002)

How the values were obtained:
Ras farnesyl transferase [1] = target: T1, Ras farnesyl transferase (Homo sapiens, UniProt P49354+P49356); assay: In vitro inhibitory activity for Ras farnesyl transferase, H-Ras substrate; assay type: biochemical; details: recombinant farnesyl transferase 4.5 nM, Ras substrate protein 1.5 μM, tritium-farnesylpyrophosphate 0.15 μM, 30 minutes at 37° C.; read-out: H-Ras IC50
T1 construct: made in house

Ras farnesyl transferase [2] = target: T2, Ras farnesyl transferase (Rattus norvegicus, UniProt Q02293+Q04631); assay: In vivo (cellular) inhibitory activity for Ras farnesyl transferase, Rat2 cell line which expresses C-Harvey-Ras protein; assay type: cell-based; details: Rat2 cell line expressing C-Harvey-Ras; concentration inhibiting 50% of farnesyl bonding of Ras protein; read-out: H-Ras CIC50
T2 construct: endogenous in cells; host or cells: Rat2 fibroblasts transformed with H-Ras or with an H-Ras/K-Ras C-terminus fusion
Method in brief: (§1)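 Farnesylated versus unfarnesylated Ras bands were measured by autoradiography after Y13-259 immunoprecipitation and SDS-PAGE, giving CIC50 as 50% inhibition of farnesylation. Rat2 cells expressing H-Ras or an H-Ras fusion with K-Ras polybasic C-terminus got compound (1% DMSO), then [35S]methionine from 4 h onward for 20 h.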

Ras farnesyl transferase [3] = target: T1, Ras farnesyl transferase; assay: In vitro inhibitory activity for Ras farnesyl transferase, K-Ras substrate; assay type: biochemical; details: in vitro farnesyl transferase assay, K-Ras; read-out: K-Ras IC50
Ras farnesyl transferase [4] = target: T2, Ras farnesyl transferase; assay: In vivo (cellular) inhibitory activity for Ras farnesyl transferase, Rat2 cell line transformed with fused protein of H-Ras substituted with polybasic lysine domain at C-terminus of K-Ras; assay type: cell-based; details: Rat2 cell line transformed with H-Ras fused with polybasic lysine domain of K-Ras C-terminus; concentration inhibiting 50% of farnesyl bonding; read-out: K-Ras CIC50
Method in brief: as §1

Row | IC50 (Ras farnesyl transferase [1]) [nM] | IC50 (Ras farnesyl transferase [2]) [nM] | IC50 (Ras farnesyl transferase [3]) [nM] | IC50 (Ras farnesyl transferase [4]) [nM] | SMILES
1 | 300 | 1500 | 3000 | 40000 | O=C(c1cn(Cc2cncn2Cc2ccc(Br)cc2)nc1-c1cccc2ccccc12)N1CCOCC1 [Compound 160, 1-[1-(4-Bromobenzyl)-1H-imidazol-5-ylmethyl]-4-(morpholin-4-yl)carbonyl-3-(naphthalen-1-yl)-1H-pyrazole]
2 | 12000 | > 50000 | > 50000 | > 50000 | CCOC(=O)c1nc(Cc2cnc[nH]2)oc1-c1cccc2ccccc12 [Compound 142, 4-Ethoxycarbonyl-2-(1H-imidazol-5-ylmethyl)-5-(naphthalen-1-yl)oxazole]
3 | 1.7 | 20 | 2.1 | 10000 to 20000 | Cc1ccc(Cn2cncc2Cn2cc(C(=O)N3CCOCC3)c(-c3cccc4ccccc34)c2)cc1 [Compound 137]
4 | 2.4 | 30 | 4 | 10000 to 50000 | CN1CCN(C(=O)c2cn(Cc3cncn3Cc3ccccc3F)cc2-c2cccc3ccccc23)CC1 [Compound 135, 1-[1-(2-Fluorobenzyl)-1H-imidazol-5-yl]methyl-3-(4-methylpiperazin-1-yl)carbonyl-4-(naphthalen-1-yl)-1H-pyrrole]
5 | 10000 | 1000 to 50000 | 100 to 10000 | 10000 to 100000 | COC(=O)[C@H](CCSC)NC(=O)c1cn(CCCc2c[nH]cn2)cc1-c1cccc2ccccc12 [Compound 107, (S)-1-[3-(1H-Imidazol-4-yl)propyl]-3-[1N-(1-methoxycarbonyl-3-methylthio)propyl]carbamoyl-4-(naphthalen-1-yl)-1H-pyrrole]
6 | 1 | 15 | 100 | < 100000 | COCCN(C)C(=O)c1cn(Cc2cncn2C)cc1-c1cccc2ccccc12 [Compound 114, 3-[N-(2-Methoxyethyl)-N-methyl]carbamoyl-1-(1-methyl-1H-imidazol-5-yl)methyl-4-(naphthalen-1-yl)-1H-pyrrole]
7 | 1700 | 30000 | > 50000 | > 50000 | COC(=O)c1sc(Cc2cncn2Cc2ccc(Cl)cc2)nc1-c1cccc2ccccc12 [Compound 148]
8 | 20 | 100 | 200 | 15000 | COCCN(C)C(=O)c1cn(Cc2cncn2Cc2ccc(Cl)cc2)nc1-c1cccc2ccccc12 [Compound 155, 1-[1-(4-Chlorobenzyl)-1H-imidazol-5-ylmethyl]-4-[N-(2-methoxyethyl)-N-methyl]-carbamoyl-3-(naphthalen-1-yl)-1H-pyrazole]
9 | 7 | 100 | 70 | 25000 | COC(=O)c1nc(Cc2cncn2Cc2ccc(Cl)cc2)sc1-c1cccc2ccccc12 [Compound 145, 2-[1-(4-Chlorobenzyl)-1H-imidazol-5-ylmethyl]-4-methoxycarbonyl-5-(naphthalen-1-yl)thiazole]
10 | 10 | > 5000 | 800 | > 50000 | CSCC[C@H](NC(=O)c1cn(Cc2cncn2Cc2ccc(C#N)cc2)cc1-c1cccc2ccccc12)C(=O)O [Compound 101, (S)-1-[1-(4-Cyanobenzyl)-1H-imidazol-5-yl]methyl-3-[N-(1-hydroxycarbonyl-3-methylthio)propyl]carbamoyl-4(naphthalen-1-yl)-1H-pyrrole]

Further lines, the molecule ahead of its results:

Row | SMILES | IC50 (Ras farnesyl transferase [1]) [nM] | IC50 (Ras farnesyl transferase [2]) [nM] | IC50 (Ras farnesyl transferase [3]) [nM] | IC50 (Ras farnesyl transferase [4]) [nM]
11 | CN(C)CCN(C)C(=O)c1cn(Cc2cncn2Cc2ccc3c(c2)OCO3)cc1-c1cccc2ccccc12 [Compound 4, 3-{N-[2-(N,N-Dimethylamino)ethyl]-N-methyl}carbamoyl-1-[1-(3,4-methylendioxybenzyl)-1H-imidazol-5-ylmethyl]-4-(naphthalen-1-yl)-1H-pyrrole] | 47 | 100 to 1000 | 750 | 10000 to 100000
12 | CN1CCN(C(=O)c2cn(Cc3cncn3CCc3cccc(Cl)c3)cc2-c2cccc3ccccc23)CC1 [Compound 26, 1-[1-(3-Chloro)phenethyl-1H-imidazol-5-yl]methyl-3-[4-methylpiperazin-1-yl]carbonyl-4-(naphthalen-1-yl)-1H-pyrrole] | 2 | 15 | 3 | 10000 to 50000
13 | CN1CCN(C(=O)c2cn(Cc3cncn3CCc3ccc(Br)cc3)cc2-c2cccc3ccccc23)CC1 [Compound 34, 1-[1-(4-Bromo)phenethyl-1H-imidazol-5-yl]methyl-3-[4-methylpiperazin-1-yl]carbonyl-4-(naphthalen-1-yl)-1H-pyrrole] | 2 | 20 | 3 | 10000 to 50000
14 | O=C(c1ccc(Oc2ccccc2)cc1)c1cn(Cc2c[nH]cn2)cc1-c1cccc2ccccc12 [Compound 67] | 20 | 3000 | 100 to 10000 | > 50000
15 | CN(CCO)C(=O)c1cn(Cc2c[nH]cn2)cc1-c1cccc2ccccc12 [Compound 94] | 200 | 1000 to 50000 | 100 to 10000 | 10000 to 100000
16 | COCCN(C)C(=O)c1cn(Cc2cncn2CCCc2ccccc2)cc1-c1cccc2ccccc12 [Compound 27, 3-[N-(2-Methoxyethyl)-N-methyl]carbamoyl-4-(naphthalen-1-yl)-1-[1-(3-pheny)propyl-1H-imidazol-5-yl]methyl-1H-pyrrole] | 6 | 25 | 5 | 10000 to 30000
17 | COc1ccc(C(=O)c2cn(Cc3c[nH]cn3)cc2-c2cccc3ccccc23)cc1 [Compound 54] | 390 | 1000 to 50000 | 100 to 10000 | 10000 to 100000
18 | CN1CCN(C(=O)c2cn(Cc3cncn3Cc3ccc4ccccc4c3)cc2-c2cccc3ccccc23)CC1 [Compound 30] | 2 | 10 | 4 | 10000 to 20000
19 | COCCN(C)C(=O)c1cn(Cc2cncn2C(C)c2ccccc2)cc1-c1cccc2ccccc12 (stereo in doubt) [Compound 8, 3-[N-(2-Methoxyethyl)-N-methyl]carbamoyl-1-[1-((R)-α-methylbenzyl)-1H-imidazol-5-ylmethyl]-4-(naphthalen-1-yl)-1H-pyrrole] | 4 | 25 | 8 | 10000 to 50000
20 | COCCN(C)C(=O)c1cn(Cc2cncn2CCc2ccc3ccccc3c2)cc1-c1cccc2ccccc12 [Compound 41, 3-[N-(2-Methoxyethyl)-N-methyl]carbamoyl-4-(naphthalen-1-yl)-1-{1-[2-(naphthalen-2-yl)ethyl]-1H-imidazol-5-yl}methyl-1H-pyrrole] | 3 | 15 | 4 | 10000 to 50000
21 | O=C(NCc1ccccc1)c1cn(Cc2c[nH]cn2)cc1-c1cccc2ccccc12 [Compound 83] | 260 | 1000 to 50000 | 18500 | 10000 to 100000
22 | O=C(c1cn(Cc2cncn2CCc2ccccc2)cc1-c1cccc2ccccc12)N1CCOCC1 [Compound 15] | 5 | 25 | 10 | 10000 to 50000
23 | O=C(c1ccc(Cc2ccccc2)cc1)c1cn(Cc2c[nH]cn2)cc1-c1cccc2ccccc12 [Compound 68] | 120 | 1000 to 50000 | 100 to 10000 | 10000 to 100000
24 | O=C(c1cn(Cc2c[nH]cn2)cc1-c1ccnc2ccccc12)N1CCOCC1 [Compound 96] | 230 | 1000 to 50000 | 100 to 10000 | 10000 to 100000
25 | CCCCc1c(-c2cccc3ccccc23)c(C(=O)c2ccc(Cl)cc2Cl)cn1Cc1c[nH]cn1 [Compound 71] | 120 | 1000 to 50000 | 100 to 10000 | 10000 to 100000
26 | COCCN(C)C(=O)c1cn(Cc2cncn2Cc2cccc3ccccc23)cc1-c1cccc2ccccc12 [Compound 5] | 3.7 | 25 | 8.5 | 10000 to 50000
27 | O=C(c1cn(Cc2c[nH]cn2)cc1-c1cccc2ccccc12)N1CCOCC1 [Compound 85] | 30 | 4000 | 100 to 10000 | > 50000
28 | CN1CCN(C(=O)c2cn(Cc3cncn3CCc3ccc(Cl)cc3)cc2-c2cccc3ccccc23)CC1 [Compound 40] | 2 | 25 | 3 | 10000 to 50000
29 | COC(=O)[C@H](CCSC)NC(=O)c1cn(Cc2c[nH]cn2)cc1-c1cccc2ccccc12 [Compound 80, (S)-1-(1H-Imidazol-4-yl)methyl-3-[N-(1-methoxycarbonyl-3-methylthio)propyl]carbamoyl-4-(naphthalen-1-yl)-1H-pyrrole] | 8210 | 1000 to 50000 | 100 to 10000 | 10000 to 100000
30 | CSCCOc1ccc(C(=O)c2cn(Cc3c[nH]cn3)cc2-c2cccc3ccccc23)cc1 [Compound 63] | 230 | 1000 to 50000 | 100 to 10000 | 10000 to 100000
31 | O=C(c1cn(Cc2cncn2Cc2ccc3c(c2)OCO3)cc1-c1cccc2ccccc12)N1CCOCC1 [Compound 2, 1-[1-(3,4-Methylenedioxybenzyl)-1H-imidazol-5-ylmethyl]-3-(morpholin-4-yl)carbonyl-4-(naphthalen-1-yl)-1H-pyrrole] | 0.85 | 25 | 2 | 10000 to 50000
